# Reference: paper PMC5882164, “A novel calcimimetic agent, evocalcet (MT-4580/KHK7580), suppresses the parathyroid cell function with little effect on the gastrointestinal tract or CYP isozymes in vivo and in vitro” (PLoS ONE, 2018)
# Values joined by “and” are separate entries in the source; they are usually repeats but may differ in a detail not shown here. Equal values may be shown once.
# Tests used:
# gastric emptying = test: Evaluation of gastric emptying in rats (phenol red); type: in vivo, rat
# Experimental: The study of gastric emptying in rats was performed by referencing a previously reported method. […] The rats were divided into eight body-weight-matched groups (n = 8/group). […] Ten minutes later, 0.05 w/v% phenol red, a non-absorbable marker solution (1.5 mL/body), was orally administered. Thirty minutes after the administration of phenol red, the rats were euthanized by cervical dislocation, and the gastric body clamped at the cardiac and pyloric part of the stomach was obtained. The stomach was homogenized by adding 0.1 M NaOH and centrifugated. The supernatant was mixed with 20 w/v% trichloroacetic acid. After centrifugation, the supernatant was mixed with the same volume of 0.5 mol/L NaOH, and the absorbance was measured at 560 nm. The gastric emptying rate was calculated by the following formula: […]=[1-(opticaldensity[[…])]×100
# serum calcium = test: Normal rat study: serum calcium level after oral administration; type: in vivo; set-up: Serum Ca: unit not given here; conditions: normal rats
# Experimental: (§1) After acclimatization, rats were divided into nine groups (n = 10/group) matched in terms of body weight, and their serum PTH and calcium levels. Vehicle, 0.5% (w/v) methyl cellulose (Wako Pure Chemical Industries, Ltd.) solution orally administered to vehicle treatment group rats. Evocalcet (0.03, 0.1, 0.3, or 1 mg/kg), or cinacalcet (1, 3, 10, or 30 mg/kg) were suspended in the vehicle solution and orally administered to each drug treatment group. Blood samples were collected from the tail vein before and at 0.5, 2, 4, 6, 8, and 24 h after the oral administration.
# (§2) The serum PTH level was measured using a Rat Intact PTH ELISA kit (Immutopics, Inc., San Clemente, CA). The serum calcium, phosphate and BUN levels were measured using an auto analyzer (Hitachi High-Technologies Corporation., Tokyo, Japan) or the following test kits: the Calcium E-test WAKO, the Phospha C-test WAKO, or the Blood Urea nitrogen B-test WAKO (Wako Pure Chemical Industries, Ltd., Osaka, Japan).
# serum PTH [1] = test: Normal rat study: serum PTH level after oral administration; type: in vivo; conditions: normal rats
# Experimental: as §1, §2
# serum PTH [2] = test: Serum PTH reduction in common marmosets; type: in vivo, common marmoset; set-up: Serum PTH levels: unit not given here
# Experimental: The study of effect of evocalcet on emesis in common marmoset was performed by referencing a previously reported method. The marmosets (n = 24) used for this study were housed in cages (460 × 600 × 655 mm) with environmental enrichments (wooden perches, swing, and balls) and acclimated for at least 4 weeks. The marmosets were fasted from evening on the day before administration. […] The serum PTH level was measured using a Porcine Intact PTH ELISA kit (Immutopics, Inc., San Clemente, CA, USA). To evaluate the emetic effects in marmosets, evocalcet (50 or 150 μg/kg) or cinacalcet (1500 or 5000 μg/kg) was orally administered (n = 6/drug, dose down titration, n = 12 in total). The observation of emesis was conducted until 4 h after the administration.
# [3] = evocalcet 0.03 mg/kg oral, 0 h (before administration), group mean, n = 10
# [4] = evocalcet 0.03 mg/kg oral, 0 h (before administration), individual rats
# [5] = evocalcet 0.03 mg/kg oral, 0.5 h, group mean, n = 10
# [6] = evocalcet 0.03 mg/kg oral, 0.5 h, individual rats
# [7] = evocalcet 0.03 mg/kg oral, 2 h, group mean, n = 10
# [8] = evocalcet 0.03 mg/kg oral, 2 h, individual rats
# [9] = evocalcet 0.03 mg/kg oral, 4 h, group mean, n = 10
# [10] = evocalcet 0.03 mg/kg oral, 4 h, individual rats
# [11] = evocalcet 0.03 mg/kg oral, 6 h, group mean, n = 10
# [12] = evocalcet 0.03 mg/kg oral, 6 h, individual rats
# [13] = evocalcet 0.03 mg/kg oral, 8 h, group mean, n = 10
# [14] = evocalcet 0.03 mg/kg oral, 8 h, individual rats
# [15] = evocalcet 0.03 mg/kg oral, 24 h, group mean, n = 10
# [16] = evocalcet 0.03 mg/kg oral, 24 h, individual rats
# [17] = evocalcet 0.1 mg/kg oral, 0 h (before administration), individual rats
# [18] = evocalcet 0.1 mg/kg oral, 0.5 h, individual rats
# [19] = evocalcet 0.1 mg/kg oral, 2 h, individual rats
# [20] = evocalcet 0.1 mg/kg oral, 4 h, individual rats
# [21] = evocalcet 0.1 mg/kg oral, 6 h, individual rats
# [22] = evocalcet 0.1 mg/kg oral, 8 h, individual rats
# [23] = evocalcet 0.1 mg/kg oral, 24 h, individual rats
# [24] = single oral dose, vs vehicle group
smiles,measurement,setting,value
C[C@@H](N[C@H]1CCN(c2ccc(CC(=O)O)cc2)C1)c1cccc2ccccc12 [evocalcet],Gastric Emptying,"gastric emptying; 0.3 mg/kg, group mean",67.83%
same,Gastric Emptying,"gastric emptying; 0.3 mg/kg, individual rats",75.29% and 74.04% and 68.43% and 31.88% and 68.64% and 79.44% and 65.73% and 79.23%
same,Gastric Emptying,"gastric emptying; 1 mg/kg, group mean",65.89%
same,Gastric Emptying,"gastric emptying; 1 mg/kg, individual rats",38.94% and 71.96% and 52.65% and 74.45% and 73.42% and 65.94% and 77.15% and 72.59%
same,Gastric Emptying,"gastric emptying; 3 mg/kg, group mean",61.58%
same,Gastric Emptying,"gastric emptying; 3 mg/kg, individual rats",69.47% and 67.19% and 53.48% and 63.03% and 78.82% and 61.16% and 64.49% and 34.99%
same,Dose (3 mg/kg) without delay of gastric emptying relative to the dose required for a significant PTH reduction,gastric emptying; oral,100 fold
same,Effect on gastric emptying,"gastric emptying; oral 0.3, 1 and 3 mg/kg (any dose)",no significant effects
same,Serum Ca,serum calcium; [3],10.9
same,Serum Ca,serum calcium; [4],10.2 and 11.0 and 11.2 and 10.8
same,Serum Ca,serum calcium; [5],11.0
same,Serum Ca,serum calcium; [6],10.2 and 10.6 and 11.8 and 10.4 and 11.2 and 11.4
same,Serum Ca,serum calcium; [7],10.8
same,Serum Ca,serum calcium; [8],10.0 and 11.2 and 10.6 and 10.8 and 11.0 and 10.4
same,Serum Ca,serum calcium; [9],10.4
same,Serum Ca,serum calcium; [10],10.2 and 10.8 and 10.0 and 10.6 and 10.4
same,Serum Ca,serum calcium; [11],10.3
same,Serum Ca,serum calcium; [12],10.0 and 10.4 and 10.2 and 10.6
same,Serum Ca,serum calcium; [13],10.5
same,Serum Ca,serum calcium; [14],9.6 and 10.0 and 8.6 and 10.6 and 11.4 and 10.8 and 12.6
same,Serum Ca,serum calcium; [15],10.5
same,Serum Ca,serum calcium; [16],10.2 and 10.4 and 10.6 and 10.8
same,Serum Ca,"serum calcium; evocalcet 0.1 mg/kg oral, 0 h (before administration), group mean, n = 10",10.9
same,Serum Ca,serum calcium; [17],11.0 and 10.8
same,Serum Ca,"serum calcium; evocalcet 0.1 mg/kg oral, 0.5 h, group mean, n = 10",10.7
same,Serum Ca,serum calcium; [18],10.6 and 10.0
same,Serum Ca,"serum calcium; evocalcet 0.1 mg/kg oral, 2 h, group mean, n = 10",10.1
same,Serum Ca,serum calcium; [19],10.2 and 10.0 and 9.8
same,Serum Ca,"serum calcium; evocalcet 0.1 mg/kg oral, 4 h, group mean, n = 10",9.8
same,Serum Ca,serum calcium; [20],9.8 and 10.0 and 10.2 and 9.6
same,Serum Ca,"serum calcium; evocalcet 0.1 mg/kg oral, 6 h, group mean, n = 10",9.9
same,Serum Ca,serum calcium; [21],10.0 and 10.4 and 9.8
same,Serum Ca,"serum calcium; evocalcet 0.1 mg/kg oral, 8 h, group mean, n = 10",10.6
same,Serum Ca,serum calcium; [22],10.4 and 10.8 and 10.6
same,Serum Ca,"serum calcium; evocalcet 0.1 mg/kg oral, 24 h, group mean, n = 10",11.6
same,Serum Ca,serum calcium; [23],12.6 and 10.8 and 12.0
same,Serum Ca,"serum calcium; evocalcet 0.3 mg/kg oral, 0 h (before administration), individual rats",10.4 and 10.8 and 11.2
same,Serum Ca,"serum calcium; evocalcet 0.3 mg/kg oral, 0.5 h, individual rats",9.6 and 9.4 and 10.4 and 10.0
same,Serum Ca,"serum calcium; evocalcet 0.3 mg/kg oral, 2 h, individual rats",9.0 and 9.2 and 9.4 and 9.8
same,Serum Ca,"serum calcium; evocalcet 0.3 mg/kg oral, 4 h, individual rats",8.8 and 9.6 and 9.4 and 9.8 and 9.2 and 9.0
same,Serum Ca,"serum calcium; evocalcet 0.3 mg/kg oral, 6 h, individual rats",8.6 and 9.8 and 9.6 and 9.4 and 9.0
same,Serum Ca,"serum calcium; evocalcet 0.3 mg/kg oral, 8 h, individual rats",9.8 and 10.4 and 9.4 and 8.8
same,Serum Ca,"serum calcium; evocalcet 0.3 mg/kg oral, 24 h, individual rats",14.8 and 11.4 and 11.0 and 11.2
same,Doses that significantly reduced the serum calcium level,serum calcium; [24],≥ 0.1 mg/kg
same,Serum PTH,serum PTH [1]; [3],117.288
same,Serum PTH,serum PTH [1]; [4],129.159 and 98.086 and 98.874 and 128.658 and 81.261 and 126.366 and 104.386 and 122.715 and 112.906 and 170.470
same,Serum PTH,serum PTH [1]; [5],51.998
same,Serum PTH,serum PTH [1]; [6],33.535 and 36.787 and 59.553 and 50.196 and 64.403 and 70.451 and 74.902 and 34.333 and 15.500 and 80.322
same,Serum PTH,serum PTH [1]; [7],103.394
same,Serum PTH,serum PTH [1]; [8],15.500 and 69.801 and 132.927 and 117.200 and 119.941 and 109.480 and 83.508 and 88.630 and 158.250 and 138.699
same,Serum PTH,serum PTH [1]; [9],147.651
same,Serum PTH,serum PTH [1]; [10],111.671 and 66.789 and 176.435 and 179.922 and 200.545 and 117.161 and 137.784 and 93.718 and 165.530 and 226.956
same,Serum PTH,serum PTH [1]; [11],186.457
same,Serum PTH,serum PTH [1]; [12],167.854 and 143.511 and 260.179 and 212.225 and 211.330 and 175.263 and 176.565 and 131.380 and 164.597 and 221.669
same,Serum PTH,serum PTH [1]; [13],183.556
same,Serum PTH,serum PTH [1]; [14],144.862 and 141.432 and 139.974 and 226.246 and 213.297 and 177.022 and 177.107 and 148.207 and 214.155 and 253.260
same,Serum PTH,serum PTH [1]; [15],111.913
same,Serum PTH,serum PTH [1]; [16],85.800 and 128.079 and 93.520 and 115.512 and 45.316 and 85.890 and 75.657 and 215.959 and 131.939 and 141.454
same,Serum PTH,serum PTH [1]; [17],112.047 and 96.726 and 90.998 and 167.821
same,Serum PTH,serum PTH [1]; [18],33.820 and 15.500
same,Serum PTH,serum PTH [1]; [19],42.097 and 52.053 and 15.500
same,Serum PTH,serum PTH [1]; [20],266.348 and 163.156 and 79.252 and 192.014
same,Serum PTH,serum PTH [1]; [21],153.036 and 149.943 and 133.171 and 173.553
same,Serum PTH,serum PTH [1]; [22],303.000 and 168.617 and 221.701
same,Serum PTH,serum PTH [1]; [23],120.270 and 80.325 and 122.155
same,Strength of pharmacological effect relative to cinacalcet at the same dosage,serum PTH [1]; oral,approximately 30 times
same,Doses that significantly reduced the serum PTH level,serum PTH [1]; [24],≥ 0.03 mg/kg
same,Serum PTH levels,"serum PTH [2]; 5 μg/kg, 1 h, individual animals",19.1 and 25.6 and 158.9
same,Serum PTH levels,"serum PTH [2]; 5 μg/kg, 1 h, mean",67.9
same,Serum PTH levels,"serum PTH [2]; 5 μg/kg, 4 h, individual animals",52.9 and 115.9 and 433.3
same,Serum PTH levels,"serum PTH [2]; 5 μg/kg, 4 h, mean",200.7
same,Serum PTH levels,"serum PTH [2]; 5 μg/kg, before administration, individual animals",92.1 and 97.8 and 541.4
same,Serum PTH levels,"serum PTH [2]; 5 μg/kg, before administration, mean",243.8
same,Serum PTH levels,"serum PTH [2]; 150 μg/kg, 1 h, individual animals",36.4 and 52.9 and 258.2
same,Serum PTH levels,"serum PTH [2]; 150 μg/kg, 1 h, mean",115.9
same,Serum PTH levels,"serum PTH [2]; 150 μg/kg, 4 h, individual animals",81.0 and 188.4 and 311.9
same,Serum PTH levels,"serum PTH [2]; 150 μg/kg, 4 h, mean",193.8
same,Serum PTH levels,"serum PTH [2]; 150 μg/kg, before administration, individual animals",57.2 and 203.0 and 236.6
same,Serum PTH levels,"serum PTH [2]; 150 μg/kg, before administration, mean",165.6
same,Minimum effective dose on PTH reduction,serum PTH [2]; oral,0.005 mg/kg
